# Results published in paper PMC6934184, “Selective DNA-PKcs inhibition extends the therapeutic index of localized radiotherapy and chemotherapy” (The Journal of Clinical Investigation, 2019).
# Biological target: T1, INSRR (IRR) (Homo sapiens, UniProt P14616)
# T1 construct: purchased Thermo Fisher Scientific (Life Technologies) SelectScreen
# Experiment: SelectScreen Z'LYTE
# Assay type: biochemical
# Procedure, shortened: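 SelectScreen broad panel; activity (Z'LYTE, Adapta) plus binding formats. ATP: Km app for CSF1R Z'LYTE; 10 for CAMK1 Adapta. Readout = % per kinase.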
# T1 sequence (P14616 27-1297): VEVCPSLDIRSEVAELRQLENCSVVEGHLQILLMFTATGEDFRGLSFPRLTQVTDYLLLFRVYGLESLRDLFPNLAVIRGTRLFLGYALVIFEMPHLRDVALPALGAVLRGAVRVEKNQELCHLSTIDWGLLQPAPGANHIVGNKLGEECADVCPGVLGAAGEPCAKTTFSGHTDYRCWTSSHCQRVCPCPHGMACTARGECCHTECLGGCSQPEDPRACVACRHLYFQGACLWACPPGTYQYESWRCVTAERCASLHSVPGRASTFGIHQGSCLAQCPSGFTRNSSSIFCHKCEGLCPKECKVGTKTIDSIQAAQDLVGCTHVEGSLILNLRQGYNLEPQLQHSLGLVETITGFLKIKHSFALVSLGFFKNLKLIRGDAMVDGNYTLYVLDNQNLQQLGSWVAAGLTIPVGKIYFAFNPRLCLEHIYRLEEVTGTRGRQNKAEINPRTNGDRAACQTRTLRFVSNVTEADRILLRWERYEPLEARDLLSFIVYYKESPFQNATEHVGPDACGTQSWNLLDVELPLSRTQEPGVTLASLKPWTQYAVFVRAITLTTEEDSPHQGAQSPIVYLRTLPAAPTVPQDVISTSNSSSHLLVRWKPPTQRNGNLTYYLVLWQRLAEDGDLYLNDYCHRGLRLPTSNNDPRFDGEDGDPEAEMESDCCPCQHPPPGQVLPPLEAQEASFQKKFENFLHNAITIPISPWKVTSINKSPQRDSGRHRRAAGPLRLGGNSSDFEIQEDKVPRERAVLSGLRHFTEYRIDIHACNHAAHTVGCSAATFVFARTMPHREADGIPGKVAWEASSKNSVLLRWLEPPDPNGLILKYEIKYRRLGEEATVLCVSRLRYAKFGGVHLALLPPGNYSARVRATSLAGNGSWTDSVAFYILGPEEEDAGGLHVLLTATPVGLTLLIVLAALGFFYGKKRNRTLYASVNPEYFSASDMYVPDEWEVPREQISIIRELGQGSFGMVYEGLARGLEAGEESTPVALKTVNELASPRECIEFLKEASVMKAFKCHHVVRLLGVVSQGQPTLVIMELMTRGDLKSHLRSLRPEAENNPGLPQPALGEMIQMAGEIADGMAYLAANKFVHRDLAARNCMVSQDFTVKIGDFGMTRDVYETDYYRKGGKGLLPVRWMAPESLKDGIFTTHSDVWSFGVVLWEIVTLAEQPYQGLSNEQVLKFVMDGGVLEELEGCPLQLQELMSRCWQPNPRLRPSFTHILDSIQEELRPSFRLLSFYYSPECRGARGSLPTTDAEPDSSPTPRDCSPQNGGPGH
structure (smiles),measurement,value
CN(C(=O)CN1CCOCC1)c1ccc2sc3c(-c4cccc5c(=O)cc(N6CC7CCC(C6)O7)oc45)cccc3c2c1 [NU5455],inhibition at 1 µM,14.1%
